One molecule from PubChem BioAssay AID1224901 can be followed below.

This test deals with MCF7 viability, PrestoBlue fluorescence. Description: growth inhibition of MCF7 cells, dose response, mTOR inhibitor project (AID 1224901).

By EC50 is commonly meant the concentration needed to bring the measured effect to its halfway point. `CCOC(Cn1nc(-c2ccc3oc(N)nc3c2)c2c(N)ncnc21)OCC`: the EC50 is 8 nM.
